{
  "source": "ChEMBL document CHEMBL4130433",
  "about": "“Acridone-pyrimidine hybrids- design, synthesis, cytotoxicity studies in resistant and sensitive cancer cells and molecular docking studies” (Eur J Med Chem, 2017)",
  "key": {"[1]": {"test_system": "Rattus norvegicus", "assay": "Toxicity in overnight fasted albino Wistar rat assessed as body weight at 5000 mg/kg, po administered as single dose followed by fasting for 3 hrs measured on day 7 post dose (reference value: 175 +/- 10 g)", "assay_type": "organism-based", "details": "in vivo"}, "[2]": {"test_system": "SW1573", "assay": "Antiproliferative activity against resistant human SW1573 2R 120 cells harboring MRP1 after 72 hrs by MTT assay", "assay_type": "functional, cell-based", "details": "SW1573, 72 h"}, "[3]": {"test_system": "Rattus norvegicus", "assay": "Toxicity in overnight fasted albino Wistar rat assessed as body weight at 300 mg/kg, po administered as single dose followed by fasting for 3 hrs measured on day 1 post dose (reference value: 162 +/- 8 g)", "assay_type": "organism-based", "details": "in vivo"}, "[4]": {"test_system": "Rattus norvegicus", "assay": "Toxicity in overnight fasted albino Wistar rat assessed as body weight at 300 mg/kg, po administered as single dose followed by fasting for 3 hrs measured on day 10 post dose (reference value: 182 +/- 15 g)", "assay_type": "organism-based", "details": "in vivo"}, "[5]": {"test_system": "Rattus norvegicus", "assay": "Toxicity in overnight fasted albino Wistar rat assessed as body weight at 300 mg/kg, po administered as single dose followed by fasting for 3 hrs measured on day 9 post dose (reference value: 180 +/- 12 g)", "assay_type": "organism-based", "details": "in vivo"}, "[6]": {"test_system": "Rattus norvegicus", "assay": "Toxicity in overnight fasted albino Wistar rat assessed as body weight at 5000 mg/kg, po administered as single dose followed by fasting for 3 hrs measured on day 4 post dose (reference value: 169 +/- 5 g)", "assay_type": "organism-based", "details": "in vivo"}, "[7]": {"test_system": "Rattus norvegicus", "assay": "Toxicity in overnight fasted albino Wistar rat assessed as body weight at 5000 mg/kg, po administered as single dose followed by fasting for 3 hrs measured on day 6 post dose (reference value: 173 +/- 12 g)", "assay_type": "organism-based", "details": "in vivo"}, "[8]": {"test_system": "Rattus norvegicus", "assay": "Toxicity in overnight fasted albino Wistar rat assessed as body weight at 2000 mg/kg, po administered as single dose followed by fasting for 3 hrs measured on day 2 post dose (reference value: 165 +/- 12 g)", "assay_type": "organism-based", "details": "in vivo"}, "[9]": {"test_system": "Rattus norvegicus", "assay": "Toxicity in overnight fasted albino Wistar rat assessed as body weight at 300 mg/kg, po administered as single dose followed by fasting for 3 hrs measured on day 14 post dose (reference value: 191 +/- 18 g)", "assay_type": "organism-based", "details": "in vivo"}, "[10]": {"test_system": "Rattus norvegicus", "assay": "Toxicity in overnight fasted albino Wistar rat assessed as body weight at 300 mg/kg, po administered as single dose followed by fasting for 3 hrs measured on day 4 post dose (reference value: 169 +/- 5 g)", "assay_type": "organism-based", "details": "in vivo"}, "[11]": {"test_system": "Rattus norvegicus", "assay": "Toxicity in overnight fasted albino Wistar rat assessed as body weight at 2000 mg/kg, po administered as single dose followed by fasting for 3 hrs measured on day 9 post dose (reference value: 180 +/- 12 g)", "assay_type": "organism-based", "details": "in vivo"}, "[12]": {"test_system": "Rattus norvegicus", "assay": "Toxicity in overnight fasted albino Wistar rat assessed as body weight at 2000 mg/kg, po administered as single dose followed by fasting for 3 hrs measured on day 4 post dose (reference value: 169 +/- 5 g)", "assay_type": "organism-based", "details": "in vivo"}, "[13]": {"target": "RAC-alpha serine/threonine-protein kinase (Homo sapiens, UniProt P31749)", "sequence (P31749 whole entry, the tested form may be a part)": "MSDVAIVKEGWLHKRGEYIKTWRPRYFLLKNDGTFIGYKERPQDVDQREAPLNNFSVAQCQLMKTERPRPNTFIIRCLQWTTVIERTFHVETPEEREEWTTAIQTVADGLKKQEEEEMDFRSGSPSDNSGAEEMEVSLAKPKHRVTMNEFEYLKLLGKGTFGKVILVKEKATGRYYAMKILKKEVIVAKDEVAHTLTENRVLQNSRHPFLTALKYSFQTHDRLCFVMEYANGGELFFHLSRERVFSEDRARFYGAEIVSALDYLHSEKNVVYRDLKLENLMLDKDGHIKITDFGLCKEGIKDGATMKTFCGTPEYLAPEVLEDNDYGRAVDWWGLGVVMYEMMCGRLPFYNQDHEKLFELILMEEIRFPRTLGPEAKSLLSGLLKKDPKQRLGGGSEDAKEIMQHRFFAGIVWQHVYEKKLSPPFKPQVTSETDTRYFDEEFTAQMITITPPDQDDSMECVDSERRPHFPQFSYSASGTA", "assay": "Inhibition of PH domain lacking AKT1 (unknown origin) using Tamara-labeled GRPRTSSFAEG peptide as substrate after 90 mins by fluorescence polarization IMAP assay"}, "[14]": {"test_system": "Rattus norvegicus", "assay": "Toxicity in overnight fasted albino Wistar rat assessed as body weight at 2000 mg/kg, po administered as single dose followed by fasting for 3 hrs measured on day 3 post dose (reference value: 166 +/- 10 g)", "assay_type": "organism-based", "details": "in vivo"}, "[15]": {"test_system": "MDA-MB-231", "assay": "Antiproliferative activity against human MDA-MB-231 cells after 72 hrs by MTT assay", "assay_type": "functional, cell-based", "details": "MDA-MB-231, 72 h"}, "[16]": {"test_system": "SW1573", "assay": "Antiproliferative activity against resistant human SW1573 2R 160 cells harboring P-gp after 72 hrs by MTT assay", "assay_type": "functional, cell-based", "details": "SW1573, 72 h"}, "[17]": {"test_system": "MCF7", "assay": "Antiproliferative activity against human MCF7 cells after 72 hrs by MTT assay", "assay_type": "functional, cell-based", "details": "MCF7, 72 h"}, "[18]": {"test_system": "Rattus norvegicus", "assay": "Toxicity in overnight fasted albino Wistar rat assessed as body weight at 300 mg/kg, po administered as single dose followed by fasting for 3 hrs measured on day 3 post dose (reference value: 166 +/- 10 g)", "assay_type": "organism-based", "details": "in vivo"}, "[19]": {"test_system": "Rattus norvegicus", "assay": "Toxicity in overnight fasted albino Wistar rat assessed as body weight at 5000 mg/kg, po administered as single dose followed by fasting for 3 hrs measured on day 8 post dose (reference value: 177 +/- 8 g)", "assay_type": "organism-based", "details": "in vivo"}, "[20]": {"test_system": "Rattus norvegicus", "assay": "Toxicity in overnight fasted albino Wistar rat assessed as body weight at 300 mg/kg, po administered as single dose followed by fasting for 3 hrs measured on day 13 post dose (reference value: 188 +/- 16 g)", "assay_type": "organism-based", "details": "in vivo"}, "[21]": {"test_system": "Rattus norvegicus", "assay": "Toxicity in overnight fasted albino Wistar rat assessed as body weight at 2000 mg/kg, po administered as single dose followed by fasting for 3 hrs measured on day 13 post dose (reference value: 188 +/- 16 g)", "assay_type": "organism-based", "details": "in vivo"}, "[22]": {"test_system": "Rattus norvegicus", "assay": "Toxicity in overnight fasted albino Wistar rat assessed as body weight at 5000 mg/kg, po administered as single dose followed by fasting for 3 hrs measured on day 1 post dose (reference value: 162 +/- 8 g)", "assay_type": "organism-based", "details": "in vivo"}, "[23]": {"test_system": "Rattus norvegicus", "assay": "Toxicity in overnight fasted albino Wistar rat assessed as body weight at 5000 mg/kg, po administered as single dose followed by fasting for 3 hrs measured on day 11 post dose (reference value: 185 +/- 8 g)", "assay_type": "organism-based", "details": "in vivo"}, "[24]": {"test_system": "Rattus norvegicus", "assay": "Toxicity in overnight fasted albino Wistar rat assessed as clinical signs at 300 to 5000 mg/kg, po administered as single dose followed by fasting for 3 hrs measured for every 1 hr up to 12 hrs on first day of dosing and thereafter twice in a day for 14 days", "assay_type": "organism-based", "details": "in vivo"}, "[25]": {"test_system": "Rattus norvegicus", "assay": "Toxicity in overnight fasted albino Wistar rat assessed as body weight at 5000 mg/kg, po administered as single dose followed by fasting for 3 hrs measured on day 5 post dose (reference value: 172 +/- 14 g)", "assay_type": "organism-based", "details": "in vivo"}, "[26]": {"test_system": "Rattus norvegicus", "assay": "Toxicity in overnight fasted albino Wistar rat assessed as body weight at 5000 mg/kg, po administered as single dose followed by fasting for 3 hrs measured on day 10 post dose (reference value: 182 +/- 15 g)", "assay_type": "organism-based", "details": "in vivo"}, "[27]": {"test_system": "HeLa", "assay": "Antiproliferative activity against human HeLa cells after 72 hrs by MTT assay", "assay_type": "functional, cell-based"}, "[28]": {"test_system": "2008", "assay": "Antiproliferative activity against resistant human 2008 cells clone 6 harboring MRP1 after 72 hrs by MTT assay", "assay_type": "functional, cell-based", "details": "Homo sapiens, 2008, 72 h"}, "[29]": {"test_system": "Rattus norvegicus", "assay": "Toxicity in overnight fasted albino Wistar rat assessed as body weight at 2000 mg/kg, po administered as single dose followed by fasting for 3 hrs measured on day 8 post dose (reference value: 177 +/- 8 g)", "assay_type": "organism-based", "details": "in vivo"}, "[30]": {"test_system": "Rattus norvegicus", "assay": "Toxicity in overnight fasted albino Wistar rat assessed as body weight at 5000 mg/kg, po administered as single dose followed by fasting for 3 hrs measured on day 2 post dose (reference value: 165 +/- 12 g)", "assay_type": "organism-based", "details": "in vivo"}, "[31]": {"assay": "Antiproliferative activity against human MCF7/MX cells after 72 hrs by MTT assay", "assay_type": "functional, cell-based"}, "[32]": {"test_system": "2008", "assay": "Antiproliferative activity against resistant human 2008 cells clone 4 harboring MRP1 after 72 hrs by MTT assay", "assay_type": "functional, cell-based", "details": "Homo sapiens, 2008, 72 h"}, "[33]": {"test_system": "Rattus norvegicus", "assay": "Toxicity in overnight fasted albino Wistar rat assessed as body weight at 2000 mg/kg, po administered as single dose followed by fasting for 3 hrs measured on day 14 post dose (reference value: 191 +/- 18 g)", "assay_type": "organism-based", "details": "in vivo"}},
  "note": "pIC50: −log10 of the molar value.",
  "data": [
    {"smiles": "COC(=O)c1c(C)nc(NNC(=O)c2cccc3c(=O)c4ccccc4[nH]c23)nc1-c1ccc(OC)c(OC)c1", "values": [
      {"measurement": "Activity", "setting": "[1]", "result": 206, "unit": "g"},
      {"measurement": "pIC50", "setting": "[2]", "result": "< 4.00"},
      {"measurement": "Activity", "setting": "[3]", "result": 182, "unit": "g"},
      {"measurement": "Activity", "setting": "[4]", "result": 193, "unit": "g"},
      {"measurement": "Activity", "setting": "[5]", "result": 193, "unit": "g"},
      {"measurement": "Activity", "setting": "[6]", "result": 196, "unit": "g"},
      {"measurement": "Activity", "setting": "[7]", "result": 202, "unit": "g"},
      {"measurement": "Activity", "setting": "[8]", "result": 184, "unit": "g"},
      {"measurement": "Activity", "setting": "[9]", "result": 208, "unit": "g"},
      {"measurement": "Activity", "setting": "[10]", "result": 186, "unit": "g"},
      {"measurement": "Activity", "setting": "[11]", "result": 199, "unit": "g"},
      {"measurement": "Activity", "setting": "[12]", "result": 187, "unit": "g"},
      {"measurement": "pIC50", "setting": "[13]", "result": 6.51},
      {"measurement": "Activity", "setting": "[14]", "result": 186, "unit": "g"},
      {"measurement": "pIC50", "setting": "[15]", "result": 4.20},
      {"measurement": "pIC50", "setting": "[16]", "result": 4.92},
      {"measurement": "pIC50", "setting": "[17]", "result": 4.19},
      {"measurement": "Activity", "setting": "[18]", "result": 185, "unit": "g"},
      {"measurement": "Activity", "setting": "[19]", "result": 208, "unit": "g"},
      {"measurement": "Activity", "setting": "[20]", "result": 204, "unit": "g"},
      {"measurement": "Activity", "setting": "[21]", "result": 209, "unit": "g"},
      {"measurement": "Activity", "setting": "[22]", "result": 188, "unit": "g"},
      {"measurement": "Activity", "setting": "[23]", "result": 219, "unit": "g"},
      {"measurement": "Activity", "setting": "[24]", "result": "Non-Toxic"},
      {"measurement": "Activity", "setting": "[25]", "result": 198, "unit": "g"},
      {"measurement": "Activity", "setting": "[26]", "result": 215, "unit": "g"},
      {"measurement": "pIC50", "setting": "[27]", "result": 4.20},
      {"measurement": "pIC50", "setting": "[28]", "result": 4.19},
      {"measurement": "Activity", "setting": "[29]", "result": 197, "unit": "g"},
      {"measurement": "Activity", "setting": "[30]", "result": 189, "unit": "g"},
      {"measurement": "pIC50", "setting": "[31]", "result": 4.11},
      {"measurement": "pIC50", "setting": "[32]", "result": 4.38},
      {"measurement": "Activity", "setting": "[33]", "result": 213, "unit": "g"}
    ]}
  ]
}
